Key:
[1] = biological target: T1, Dual specificity calcium/calmodulin-dependent 3',5'-cyclic nucleotide phosphodiesterase 1B (Homo sapiens, UniProt Q01064); assay: Inhibition of PDE1B (unknown origin) at 1 uM
[2] = biological target: cAMP and cAMP-inhibited cGMP 3',5'-cyclic phosphodiesterase 10A (Homo sapiens, UniProt Q9Y233); assay: Inhibition of PDE10A (unknown origin)
[3] = biological target: T1, Dual specificity calcium/calmodulin-dependent 3',5'-cyclic nucleotide phosphodiesterase 1B; assay: Inhibition of PDE1B (unknown origin)
Nucleic Acid [4] = assay: Ratio of drug uptake from blood to plasma in mouse at 32 mg/kg, sc; format: ADME, organism-based; conditions: in vivo
[5] = Tmax in rat at 10 mg/kg, sc; format: ADME, organism-based; conditions: in vivo
[6] = Fraction unbound in rat at 10 mg/kg, sc; format: ADME, organism-based; conditions: in vivo
[7] = Half life in mouse at 32 mg/kg, sc; format: ADME, organism-based; conditions: in vivo
[8] = Ratio of drug uptake from blood to plasma in rat at 10 mg/kg, sc; format: ADME, organism-based; conditions: blood and plasma
[9] = Half life in rat at 10 mg/kg, sc; format: ADME, organism-based; conditions: in vivo
[10] = Cmax in rat at 50 mg/kg, po after 0.25 hrs; format: ADME, organism-based; design: dose 50 mg/kg, route oral; conditions: in vivo
[11] = Terminal half life in rat at 50 mg/kg, po; format: ADME, organism-based; conditions: in vivo, read-out: beta t1/2 (converted)
Nucleic Acid [12] = assay: Ratio of drug level in CSF to unbound fraction in rat plasma at 10 mg/kg, sc; format: ADME, organism-based; conditions: in vivo
[13] = Fraction unbound in mouse at 32 mg/kg, sc; format: ADME, organism-based; conditions: in vivo
[14] = Tmax in mouse at 32 mg/kg, sc; format: ADME, organism-based; conditions: in vivo

cAMP and cAMP-inhibited cGMP 3',5'-cyclic phosphodiesterase 10A, sequence (Q9Y233 whole entry): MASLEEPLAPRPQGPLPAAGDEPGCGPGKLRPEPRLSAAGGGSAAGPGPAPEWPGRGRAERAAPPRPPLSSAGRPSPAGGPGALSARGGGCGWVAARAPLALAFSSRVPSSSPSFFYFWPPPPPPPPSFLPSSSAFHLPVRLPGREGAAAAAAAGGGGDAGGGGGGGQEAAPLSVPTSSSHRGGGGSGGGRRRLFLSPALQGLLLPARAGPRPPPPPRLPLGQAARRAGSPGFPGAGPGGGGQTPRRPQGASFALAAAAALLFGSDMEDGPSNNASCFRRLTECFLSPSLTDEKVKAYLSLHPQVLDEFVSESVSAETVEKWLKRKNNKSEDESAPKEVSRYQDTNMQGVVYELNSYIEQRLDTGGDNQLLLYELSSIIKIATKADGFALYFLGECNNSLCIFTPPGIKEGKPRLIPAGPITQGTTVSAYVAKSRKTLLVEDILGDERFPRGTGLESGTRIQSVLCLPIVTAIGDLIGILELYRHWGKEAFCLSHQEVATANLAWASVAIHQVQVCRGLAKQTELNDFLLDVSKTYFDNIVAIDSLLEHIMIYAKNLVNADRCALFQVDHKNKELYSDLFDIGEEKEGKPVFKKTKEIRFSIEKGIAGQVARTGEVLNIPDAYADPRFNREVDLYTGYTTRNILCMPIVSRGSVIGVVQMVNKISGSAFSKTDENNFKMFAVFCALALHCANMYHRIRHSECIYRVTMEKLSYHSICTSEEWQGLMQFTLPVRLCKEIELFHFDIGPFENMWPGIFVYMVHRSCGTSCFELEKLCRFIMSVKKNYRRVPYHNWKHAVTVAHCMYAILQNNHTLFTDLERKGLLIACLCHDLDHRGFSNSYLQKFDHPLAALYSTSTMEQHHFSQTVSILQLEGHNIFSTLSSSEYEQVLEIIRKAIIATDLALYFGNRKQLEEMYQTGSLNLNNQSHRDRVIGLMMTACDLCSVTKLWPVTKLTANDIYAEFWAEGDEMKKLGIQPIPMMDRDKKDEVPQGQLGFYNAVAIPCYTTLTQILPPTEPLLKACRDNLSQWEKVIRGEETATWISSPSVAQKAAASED
T1 sequence (Q01064 whole entry): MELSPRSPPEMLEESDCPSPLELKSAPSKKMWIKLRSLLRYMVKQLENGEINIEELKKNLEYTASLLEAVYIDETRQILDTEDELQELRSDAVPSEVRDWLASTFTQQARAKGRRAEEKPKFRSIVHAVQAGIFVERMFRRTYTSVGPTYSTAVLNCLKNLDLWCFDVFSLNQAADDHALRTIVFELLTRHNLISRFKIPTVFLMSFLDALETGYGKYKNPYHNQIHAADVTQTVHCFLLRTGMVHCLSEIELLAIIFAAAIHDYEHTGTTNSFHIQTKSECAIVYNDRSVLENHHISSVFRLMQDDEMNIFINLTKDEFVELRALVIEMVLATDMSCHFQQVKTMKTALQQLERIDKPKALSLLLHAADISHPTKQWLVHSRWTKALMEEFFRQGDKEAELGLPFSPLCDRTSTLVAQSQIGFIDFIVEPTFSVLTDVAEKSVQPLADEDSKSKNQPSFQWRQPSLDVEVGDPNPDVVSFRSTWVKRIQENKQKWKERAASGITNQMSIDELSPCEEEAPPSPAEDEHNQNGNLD

COc1cc2ncnc(Cc3cccc(Cl)c3)c2cc1OC
inhibition [1]: 24%

COc1ccc2c(N3C[C@H](C)C[C@H](C)C3)ccnc2c1OC
inhibition [1]: 0%

COc1ccc2c(N3C[C@H](C)C[C@H](C)C3)nccc2c1OC
inhibition [1]: 0%

COc1cc2cnnc(N3CC(O)CC(c4ccccc4)C3)c2cc1OC (stereo not drawn)
IC50 [2]: 3 nM

COc1cc2nncc(N3CC(O)CC(c4ccccc4)C3)c2cc1OC (stereo not drawn)
IC50 [2]: 1 nM

COc1ccc2c(C3CCc4ccc(Cl)cc43)ncnc2c1OC (stereo not drawn)
IC50 [3]: 4 nM

COc1ccc2c(C3CCc4ccc(F)cc43)ncnc2c1OC (stereo not drawn)
IC50 [3]: 38 nM

COc1cc2ncnc(N3CC(O)CC(c4ccccc4)C3)c2cc1OC (stereo not drawn)
IC50 [2]: 3 nM

COc1cc2ncnc(C(C)c3cccc(Cl)c3)c2cc1OC (stereo not drawn)
IC50 [3]: 230 nM

CCC(CC)Nc1ncnc2c(OC)c(OC)c(OC)cc12
Ratio (Nucleic Acid [4]): 0.28 | Tmax [5]: 15 min | fraction unbound [6]: 0.1 | half-life [7]: 120 min | blood plasma ratio [8]: 0.4 | half-life [9]: 39.6 min | Cmax [10]: 10.9 µM | half-life [11]: 306 min | Ratio (Nucleic Acid [12]): 0.9 | fraction unbound [13]: 0.18 | Tmax [14]: 15 min

COc1cc2ncnc(Cc3ccccc3)c2cc1OC
inhibition [1]: 0%

COc1cc2c(N3C[C@H](C)C[C@H](C)C3)cnnc2c(OC)c1OC
inhibition [1]: 0%

COc1cc2ncnc(C3CCc4ccc(Cl)cc43)c2cc1OC (stereo not drawn)
IC50 [3]: 83 nM

COc1ccc2c(C(C)c3cccc(Cl)c3)ncnc2c1OC (stereo not drawn)
IC50 [3]: 22 nM

COc1cc2c(N3C[C@H](C)C[C@H](C)C3)nncc2c(OC)c1OC
inhibition [1]: 0%

COc1ccc2c(C3CCc4ccc(Br)cc43)ncnc2c1OC (stereo not drawn)
IC50 [3]: 8 nM

COc1ccc2c([C@@H]3CCc4ccc(Cl)cc43)nccc2c1OC
IC50 [3]: 458 nM

COc1ccc2c(N3C[C@H](C)C[C@H](C)C3)ncnc2c1OC
IC50 [3]: 70 nM

Source: ChEMBL document CHEMBL3600381, “Small-molecule phosphodiesterase probes: discovery of potent and selective CNS-penetrable quinazoline inhibitors of PDE1” (Medchemcomm, 2014)
